# “Also recorded” adds a separate entry of the source. Where two headings read alike, the source gives them in different places.
# Tests used:
# [1] = system: keratinocytes; details: Bikle et al., cited from earlier work; for conversion in skin / keratinocytes: MacLaughlin et al.
# [2] = cited from earlier work
# [3] = system: normal human keratinocytes; test: Vitamin D3 metabolites' uptake by keratinocytes (cell associated radioactivity); assay type: in vitro ADME; details: for Uptake by keratinocytes, cell associated radioactivity: 60 picomolar, mean of duplicate; for uptake rate by keratinocytes / skin cells: Table 6 summary
# Description: Normal human keratinocytes were grown to confluence in Keratinocyte growth medium (KGM) containing 0.15 mM calcium. Medium was changed to fresh medium. The cells were then incubated in duplicate with 10,000 cpm (60 picomolar, or 25 picogram/ml medium) of 25-OH-D3 or 1,25-(OH)2 D3 for various times (0 to 240 minutes). At different time intervals indicated in the Table below, the medium of appropriate wells were aspirated, and the wells were washed three times with a 0.2% bovine serum albumin solution in 50 mM Tris/0.15M sodium chloride buffer pH 7.4. After the wash the cells in the wells were dissolved in 0.1N sodium hydroxide, neutralized with 0.1N hydrochloric acid, mixed with 5 ml of scintillation fluid (Ecolume) and counted in a beta counter. The amount of cpm associated with the cells was calculated as the percent of total cpm added for each time point studied. Data in the table is expressed as cell associated radioactivity as % of total added. Each reported result is a mean of duplicate determinations.
# [4] = system: keratinocytes; details: cited from earlier work
# [5] = system: normal human keratinocytes; test: DNA synthesis rate (3H-thymidine incorporation) in normal human keratinocytes; assay type: cell-based
# Description: Initiation of differentiation of keratinocytes is accompanied by inhibition of their growth. The rate of synthesis of DNA determined by the incorporation of radiolabeled substrate [^3 H] thymidine, is an indicator of the rate of growth of the cells. A decrease in DNA synthesis therefore indicates decrease in growth and increase in differentiation of keratinocytes.
# Methodology Used for Determining the Rate of DNA Synthesis in Keratinocytes After Treatment With Various Actives
# 1. Normal human keratinocytes isolated from neonatal foreskins by trypsin treatment were grown in DME medium/10% fetal calf serum in the presence of irradiated 3T3 mouse fibroblasts for establishing dividing keratinocyte colonies. Keratinocytes were grown under the above condition until their third passage.
# 2. For the experiments, third passage keratinocytes were plated into a serum-free keratinocyte growth medium (KGM; obtained from Clonetics Corporation, San Diego, Calif.) containing 0.15 mM calcium. 20,000 to 30,000 cells were plated into each well of 24 well cell culture plates and grown for 5 days, until the cells reach about 80% confluence.
# 3. Medium was changed to fresh medium and the various test materials were added to the medium from an ethanolic stock solution (10 A.M.). The final ethanol concentration in the cultures was kept below 0.2%. Control cultures received no tested material but were dosed with 0.2% ethanol. Each compound or combination was tested in three separate wells. By 4 P.M., 1 uCi of ^3 H-thymidine (AmerSham Corp., Sp activity 40 Ci/mmol) was added to the 1 ml medium in each well. The cells were incubated overnight and 24 hours later (10 A.M. next day) the amount of ^3 H-thymidine associated with the cellular DNA of keratinocytes was assessed as described below.
# 4. The medium was aspirated, and the wells washed with 1 ml phosphate-buffered saline. The DNA and proteins of the cells in the plate were then precipitated by adding 1 ml of ice-cold 10% trichloroacetic acid (TCA). The plates were left on ice for 30 minutes to complete the precipitation process. TCA was then aspirated and each well was then washed four times with 5% TCA. The plates were then dried on a filter pad and the cells in the wells were dissolved in 0.5 ml of 0.1N sodium hydroxide. The sodium hydroxide was then neutralized using 0.1N hydrochloric acid and the solution (1 ml total volume) was then transferred to a scintillation vial. 100 ul samples from each vial were used for protein assay using BCA protein assay reagent obtained from Pierce Chemical Company. 8 ml of a scintillation fluid (Ecolume) was added to the rest of the solution in the vial, and the vials were counted in a scintillation counter to determine the amount of radioactivity in each vial. The DNA synthesis rate was then calculated as cpm ^3 H thymidine incorporated into total cellular DNA/microgram of cell protein for each individual well. Mean and standard deviation for each group was also calculated.
# 5. All lipids listed in Tables 1-5 below were synthesized in-house. 25-OH-D3 and 1,25-(OH)2 D3 were obtained from Hoffman La Roche. Vitamin D3 was obtained from Sigma.
# [6] = system: HL-60 cells (human myelocytic leukemia cells); details: cited from earlier work
# [7] = Homo sapiens, Keratinocyte, Table 5, 3 μM lipid, 0 nM 25-OH-D3, * = statistically significant growth inhibition
smiles,measurement,setting,value
"C=C1/C(=C\C=C2/CCC[C@]3(C)[C@@H]([C@H](C)CCCC(C)(C)O)CC[C@@H]23)C[C@@H](O)C[C@@H]1O [1,25-(OH)2 D3, 1,25-dihydroxycholecalciferol]",catabolism to inactive metabolites by keratinocytes,[1],catabolized to inactive metabolites rapidly
same,degradation within skin cells,[1]; exogenously added,rapidly degraded within the skin cells
same,toxicity of higher blood levels,"[2]; higher levels of 1,25-(OH)2 D3 in blood","increase blood calcium levels and may cause heart problems, muscle weakness and contraction which may be fatal"
same,blood level after topical application,[2]; in vivo,"increases blood level of 1,25-(OH)2 D3"
same,"Uptake by keratinocytes, cell associated radioactivity",[3]; 0 minutes,0.8 % of total added
same,"Uptake by keratinocytes, cell associated radioactivity",[3]; 2 minutes,2.7 % of total added
same,"Uptake by keratinocytes, cell associated radioactivity",[3]; 5 minutes,4.2 % of total added
same,"Uptake by keratinocytes, cell associated radioactivity",[3]; 10 minutes,13.0 % of total added
same,"Uptake by keratinocytes, cell associated radioactivity",[3]; 15 minutes,10.0 % of total added
same,"Uptake by keratinocytes, cell associated radioactivity",[3]; 30 minutes,20.0 % of total added
same,"Uptake by keratinocytes, cell associated radioactivity",[3]; 60 minutes,15.6 % of total added
same,"Uptake by keratinocytes, cell associated radioactivity",[3]; 120 minutes,26.2 % of total added
same,"Uptake by keratinocytes, cell associated radioactivity",[3]; 240 minutes,30.8 % of total added
same,uptake rate by keratinocytes / skin cells,[3],rapidly taken up
same,effect on DNA synthesis and differentiation of keratinocytes,"[4]; exogenous or endogenous, Pillai et al., Hashimoto et al.","inhibits DNA synthesis (i.e., inhibits growth) and induces differentiation of keratinocytes"
same,activity at 0.001 µM,"[5]; Homo sapiens, Keratinocyte, read-out: DNA synthesis of keratinocytes, Table 1, compound alone, 1 nM, Test 1",115 ± 7.7%
same,activity at 0.01 µM,"[5]; Homo sapiens, Keratinocyte, read-out: DNA synthesis of keratinocytes, Table 1, compound alone, 10 nM, Test 1",108 ± 8.7%
same,activity at 0.01 µM,"[5]; Homo sapiens, Keratinocyte, read-out: DNA synthesis of keratinocytes, Table 1, compound alone, 10 nM, Test 2",91.9 ± 5.3%
same,activity at 0.01 µM,"[5]; Homo sapiens, Keratinocyte, read-out: DNA synthesis of keratinocytes, Table 1, compound alone, 10 nM, Test 3",91.8 ± 4.5%
same,activity at 0.1 µM,"[5]; Homo sapiens, Keratinocyte, read-out: DNA synthesis of keratinocytes, Table 1, compound alone, 100 nM, Test 1, * = statistically significant growth inhibition",102 ± 16.7%
same,activity at 0.1 µM,"[5]; Homo sapiens, Keratinocyte, read-out: DNA synthesis of keratinocytes, Table 1, compound alone, 100 nM, Test 2, * = statistically significant growth inhibition",86 ± 7.7%
same,activity at 0.1 µM,"[5]; Homo sapiens, Keratinocyte, read-out: DNA synthesis of keratinocytes, Table 1, compound alone, 100 nM, Test 3",90.3 ± 9.5%
same,activity at 1 µM,"[5]; Homo sapiens, Keratinocyte, read-out: DNA synthesis of keratinocytes, Table 1, compound alone, 1000 nM, Test 1, * = statistically significant growth inhibition",71.5 ± 2.9%
same,activity at 1 µM,"[5]; Homo sapiens, Keratinocyte, read-out: DNA synthesis of keratinocytes, Table 1, compound alone, 1000 nM, Test 2, * = statistically significant growth inhibition",56.3 ± 14.1%
same,activity at 0.01 µM,"[5]; Homo sapiens, Keratinocyte, read-out: DNA synthesis of keratinocytes, Table 4, 10 nM vitamin D3 or metabolite, no ceramide",91.8 ± 4.6%
same,activity at 0.1 µM,"[5]; Homo sapiens, Keratinocyte, read-out: DNA synthesis of keratinocytes, Table 4, 100 nM vitamin D3 or metabolite, no ceramide",90.3 ± 9.5%
same,minimal effective concentration,"[5]; Homo sapiens, Keratinocyte, read-out: concentration at which statistically significant cell growth inhibition was consistently observed",1 µM
CCCCCCCCCCCCC/C=C/C(O)C(CO)NC(C)=O (stereo not drawn) [Ceramide (Formula A)],activity at 0.3 µM,"[5]; Homo sapiens, Keratinocyte, Table 2, ceramide alone, 0.3 μM, Test 3",146 ± 21%
same,activity at 1 µM,"[5]; Homo sapiens, Keratinocyte, Table 2, ceramide alone, 1.0 μM, Test 1, read-out: DNA synthesis of keratinocytes",115 ± 11%
same,activity at 1 µM,"[5]; Homo sapiens, Keratinocyte, Table 2, ceramide alone, 1.0 μM, Test 2, read-out: DNA synthesis of keratinocytes",83.1 ± 6%
same,activity at 3 µM,"[5]; Homo sapiens, Keratinocyte, Table 2, ceramide alone, 3.0 μM, Test 3",112 ± 13%
same,activity at 10 µM,"[5]; Homo sapiens, Keratinocyte, Table 2, ceramide alone, Test 1",105 ± 22.4%
same,activity at 10 µM,"[5]; Homo sapiens, Keratinocyte, Table 2, ceramide alone, Test 2, * = statistically significant growth inhibition",69.9 ± 10%
same,activity at 10 µM,"[5]; Homo sapiens, Keratinocyte, Table 2, ceramide alone, Test 3, * = statistically significant growth inhibition",66 ± 14%
same,activity at 3 µM,"[5]; Homo sapiens, Keratinocyte, Table 4, 3.0 μM ceramide, 0 vitamin D3 or metabolite (ethanol vehicle only)",87.9 ± 0.8%
same,activity at 3 µM,[5]; [7],88 ± 0.8%
same,minimal effective concentration,"[5]; Homo sapiens, Keratinocyte, Table 2 summary, only at the highest concentration, 2 out of 3 experiments, read-out: concentration at which statistically significant growth inhibition occurred",10 µM
"C=C1CC[C@H](O)C/C1=C/C=C1\CCC[C@]2(C)[C@@H]([C@H](C)CCCC(C)(C)O)CC[C@@H]12 [Formula 25-OH--D3, 25-hydroxycholecalciferol]",conversion in skin / keratinocytes,[1],"converted to 1,25-(OH)2 D3 in keratinocyte cultures"
same,"Uptake by keratinocytes, cell associated radioactivity",[3]; 0 minutes,2.5 % of total added
same,"Uptake by keratinocytes, cell associated radioactivity",[3]; 2 minutes,3.2 % of total added
same,"Uptake by keratinocytes, cell associated radioactivity",[3]; 5 minutes,0.3 % of total added
same,"Uptake by keratinocytes, cell associated radioactivity",[3]; 10 minutes,3.4 % of total added
same,"Uptake by keratinocytes, cell associated radioactivity",[3]; 15 minutes,8.3 % of total added
same,"Uptake by keratinocytes, cell associated radioactivity",[3]; 30 minutes,8.1 % of total added
same,"Uptake by keratinocytes, cell associated radioactivity",[3]; 60 minutes,6.2 % of total added
same,"Uptake by keratinocytes, cell associated radioactivity",[3]; 120 minutes,6.8 % of total added
same,"Uptake by keratinocytes, cell associated radioactivity",[3]; 240 minutes,9.8 % of total added
same,uptake rate by keratinocytes / skin cells,[3],"slower uptake; also recorded: taken up by keratinocytes at a substantially slower rate than 1,25-(OH)2 D3"
same,activity at 0.01 µM,"[5]; Homo sapiens, Keratinocyte, Table 1, compound alone, 10 nM, Test 2, read-out: DNA synthesis of keratinocytes",86.5 ± 9%
same,activity at 0.01 µM,"[5]; Homo sapiens, Keratinocyte, Table 1, compound alone, 10 nM, Test 3, read-out: DNA synthesis of keratinocytes",95.2 ± 6.8%
same,activity at 0.1 µM,"[5]; Homo sapiens, Keratinocyte, Table 1, compound alone, 100 nM, Test 1, * = statistically significant growth inhibition, read-out: DNA synthesis of keratinocytes",86.5 ± 5.4%
same,activity at 0.1 µM,"[5]; Homo sapiens, Keratinocyte, Table 1, compound alone, 100 nM, Test 2, * = statistically significant growth inhibition, read-out: DNA synthesis of keratinocytes",79.1 ± 2.6%
same,activity at 1 µM,"[5]; Homo sapiens, Keratinocyte, Table 1, compound alone, 1000 nM, Test 2, * = statistically significant growth inhibition, read-out: DNA synthesis of keratinocytes",78.9 ± 5.4%
same,activity at 0.001 µM,"[5]; Homo sapiens, Keratinocyte, Table 3, 25-OH-D3 alone, 1 nM (second line), read-out: DNA synthesis of keratinocytes",99.3 ± 1.91%
same,activity at 0.01 µM,"[5]; Homo sapiens, Keratinocyte, Table 3, 25-OH-D3 alone, 10 nM, read-out: DNA synthesis of keratinocytes",97.2 ± 5.92%
same,activity at 0.1 µM,"[5]; Homo sapiens, Keratinocyte, Table 3, 25-OH-D3 alone, 100 nM, read-out: DNA synthesis of keratinocytes",86.5 ± 5.47%
same,activity at 1 µM,"[5]; Homo sapiens, Keratinocyte, Table 3, 25-OH-D3 alone, 1000 nM, read-out: DNA synthesis of keratinocytes",67.8 ± 5.92%
same,activity at 0.001 µM,"[5]; Homo sapiens, Keratinocyte, Table 3, 25-OH-D3 alone, first line, concentration printed as 1 nM, read-out: DNA synthesis of keratinocytes",100 ± 4.71%
same,activity at 0.1 µM,"[5]; Homo sapiens, Keratinocyte, Table 5, 100 nM 25-OH-D3, no ceramide, read-out: DNA synthesis of keratinocytes",88.5 ± 7.2%
same,minimal effective concentration,"[5]; Homo sapiens, Keratinocyte, read-out: concentration at which statistically significant cell growth inhibition was consistently observed, Table 1 summary, compound alone, only at this concentration",1 µM
CCCCCCCCCCCCCCC(O)CN(CCO)C(C)=O (stereo not drawn) [pseudoceramide (Formula C)],activity at 3 µM,[5]; [7],51.4 ± 4%
CC1=C(/C=C/C(C)=C/C=C/C(C)=C/C(=O)O)C(C)(C)CCC1 [retinoic acid],HL-60 cell differentiation,[6],induces differentiation of HL-60 cells
same,keratinocyte differentiation,[4],prevents differentiation of keratinocytes
C=C1CC[C@H](O)C/C1=C/C=C1\CCC[C@]2(C)[C@@H]([C@H](C)CCCC(C)C)CC[C@@H]12 [vitamin D3],conversion in skin / keratinocytes,[1],nor is it converted in the skin to 25-OH-D3 derivative
same,keratinocyte prodifferentiating activity,"[4]; applied topically to skin, MacLaughlin et al.",neither has keratinocyte prodifferentiating activity
same,statistically significant growth inhibition,"[5]; Table 4 summary, vitamin D3 alone",does not show statistically significant growth inhibition

# Source: patent publication US5476661A, “Compositions for topical application to skin, hair and nails” (Elizabeth Arden Co., Division of Conopco, Inc., priority 1994, dated 1995)
